The source of these data is patent publication US4386076A, “(E)-5-(2-Halogenovinyl)-arabinofuranosyluracil, process for preparation thereof, and uses thereof” (Yamasa Shoyu Kabushiki Kaisha, priority 1979, dated 1983).

In brackets after ≈: the same amount, converted by molar mass. Where two headings read alike, the source gives them in different places.

One data set relates to HSV, isolate-1. Kind of data set: Anti-virus activity on HEL-F, HSV isolate-1 (Pharmacological Test 1, Sidwell et al. method). It counts as cell-based, herpes simplex virus clinical isolated strain 1. The following applies: for MIC: read-out: MIC (minimal inhibitory concentration for cytopathogenic effect caused by the infection). The protocol:
(§1) In accordance with the Sidwell et al. method (cf. Applied Microbiology, Vol. 22, No. 5, P. 797, 1971), the anti-virus activities of 5-bromovinyl- and 5-chlorovinyl-araU on human embryonic lung fibroblasts (HEL-F) were determined by using as controls 5-iodo-2'-deoxyuridine (IDU) and arabinofuranosyladenine (araA).
(§2) *MIC = minimal inhibitory concentration for cytopathogenic effect caused
^(2) HSV, isolate1 = herpes simplex virus clinical isolated strain 1
(Cytopathic effects are the visible damage that an infection or toxin causes in cultured cells.)

For the next data set, the system named is HSV-2. Kind of data set: Anti-HSV-2 activity (Pharmacological Test 3). It counts as cell-based, type-2 herpes (HSV-2). The following applies: for anti-HSV-2 activity compared with 5-vinyl-araU: relative to 5-vinyl-araU. The procedure:
as §1
(§3) In conformance with Pharmacological Tests 1 and 2, the anti-virus activities and cell proliferations of 5-bromovinyl-araU and 5-chlorovinyl-araU were compared with those of 5-vinyl-araU and 5-bromovinyl-2'-deoxyuridine (5-bromovinyl-dUrd).

The test system of the next data set is HSV-1. In words: Anti-HSV-1 activity (Pharmacological Test 3). It counts as cell-based, herpes simplex virus type 1. Conditions: for anti-HSV-1 activity compared with 5-vinyl-araU: Test 3, relative to 5-vinyl-araU. The procedure:
as §1, §3

The test system of data set [1] is HEL-F. In words: Anti-HEL-F, cell proliferation (Pharmacological Test 3). It counts as cell-based, human. The following applies: for HEL-F proliferation inhibitory effect compared with 5-bromovinyl-dUrd: Test 3, relative to 5-bromovinyl-dUrd; for cell proliferation inhibiting activity relative to 5-vinyl-araU: Test 3, relative to 5-vinyl-araU. The protocol: (§4) The effects of 5-bromovinyl araU and 5-chlorovinyl-araU on proliferation of HEL-F were compared with those of IDU and araA in accordance with the Machida et al. method (cf. Antimicrobial Agents and Chemotherapy, Vol. 16, No. 2, p. 158, 1979).
(§5) In the growth medium of HEL-F under proliferation (culture medium: Eagle's minimal essential medium supplemented with 10% fetal bovine serum) was added a test compound diluted in serial two-fold dilution and then incubated for 4 days. The numbers of increased cells with various concentrations of the compound tested were compared with those of the control groups wherein no compound was added.
as §3

Test in data set [2]: as above
Conditions: human, hel-f cells. It counts as cell-based, human. The protocol:
as §4, §5, §3

For data set [3], the system named is HEL-F. Kind of data set: Effect on proliferation of HEL-F (Pharmacological Test 2, Machida et al. method). The format is cell-based, human. Conditions: Test 2, relative to IDU and araA. The procedure:
as §4, §5

Test in data set [4]: as above
The format is cell-based, human. The following applies: human, hel-f cells. The protocol: as §4, §5

A further data set relates to herpes virus. Kind of data set: Anti-virus activity, overall statement. The format is cell-based. Conditions: for anti-virus activity compared with IDU and araA: Test 1, relative to IDU and araA; for anti-virus activity compared with 5-bromovinyl-dUrd: Test 3, relative to 5-bromovinyl-dUrd. The protocol: as §1, §3
The subject of data set [5] is VZV. In words: Anti-VZV activity (Pharmacological Test 3). It counts as cell-based, varicella-zoster virus. The following applies: for MIC: Human alphaherpesvirus 3. The protocol: as §1, §3
A further data set has as its system HSV-1, VR-3. In words: Anti-virus activity on HEL-F, HSV-1 VR-3 (Pharmacological Test 1, Sidwell et al. method). It counts as cell-based, herpes simplex virus type 1 VR3 strain. The protocol:
as §1, §2
^(1) HSV1, VR3 = herpes simplex virus type 1 VR3 strain

Data set [6] has as its system VZV. In words: Anti-virus activity on HEL-F, VZV (Pharmacological Test 1, Sidwell et al. method). The format is cell-based, varicella-zoster virus. Conditions: for MIC: Human alphaherpesvirus 3, read-out: MIC (minimal inhibitory concentration for cytopathogenic effect caused by the infection). The protocol:
as §1, §2
^(3) VZV = varicellazoster virus

Where [7] appears, read: Human alphaherpesvirus 2, Test 3, read-out: Anti-HSV-2 MIC.
Setting [8] is: Human alphaherpesvirus 1, Test 3, read-out: Anti-HSV-1 MIC.
Setting [9] is: HEL-F under proliferation, incubated for 4 days, Test 2, read-out: ID50 (50% inhibition of proliferation).
[10] abbreviates: Human alphaherpesvirus 1, HSV-1 VR-3, HEL-F, Test 1, read-out: MIC (minimal inhibitory concentration for cytopathogenic effect caused by the infection).

As to `O=c1[nH]c(=O)n([C@@H]2O[C@H](CO)[C@@H](O)[C@@H]2O)cc1/C=C/Br` [5-bromovinyl-araU, (E)-5-(2-bromovinyl)-1-β-D-arabinofuranosyluracil], the “VR (virus rating)” value came to 3.8 with HSV, isolate-1 (HSV isolate-1, HEL-F, Test 1); 3.8 in the data set on HSV-1, VR-3 (HSV-1 VR-3, HEL-F, Test 1); 3.5 in the data set with VZV [6]. Besides, the MIC with HSV, isolate-1 (HSV isolate-1, HEL-F, Test 1) was found to be 0.032 µg/mL (≈ 0.0917 µM); in the data set on HSV-2 (setting [7]) it was 100 µg/mL (≈ 286 µM); in the data set on HSV-1 (setting [8]) it was 0.032 µg/mL (≈ 0.0917 µM); against VZV [5] it was 0.1 µg/mL (≈ 0.286 µM); with HSV-1, VR-3 (setting [10]), 0.032 µg/mL (≈ 0.0917 µM); with VZV [6] it was 0.1 µg/mL (≈ 0.286 µM). Also, the “anti-HSV-2 activity compared with anti-HSV-1 activity” value with HSV-2 (HSV-2 versus HSV-1) is “lower than that on type-1 herpes (HSV-1)”. Besides, the “Anti-HSV-2 VR” value in the data set with HSV-2 (Test 3) was 0.9. Also, the “anti-HSV-2 activity compared with 5-vinyl-araU” value with HSV-2 was “inferior to 5-vinyl-araU”. The “Anti-HSV-1 VR” value with HSV-1 (Test 3) turned out to be 3.7. In addition, in the data set on HSV-1, the “anti-HSV-1 activity compared with 5-vinyl-araU” value was “significantly greater anti-HSV-1 activity”. Also, the “HEL-F proliferation inhibitory effect compared with 5-bromovinyl-dUrd” value in the data set with HEL-F [1] is on record as “less than that of 5-bromovinyl-dUrd”. Moreover, in the data set with HEL-F [1], the “cell proliferation inhibiting activity relative to 5-vinyl-araU” value is listed as “one half relative to 5-vinyl-araU”. For the same compound, the CC50 at 96 h in data set [2] and in [4] (setting [9]) was above 1000 µg/mL each time. In addition, in the data set with HEL-F [3], the “inhibition of cell proliferation compared with IDU and araA” value is reported as “markedly weak inhibition of cell proliferation”. Also, the “anti-virus activity compared with IDU and araA” value in the data set on herpes virus is listed as “stronger anti-virus activities”. Also, in the data set on herpes virus, the “anti-virus activity compared with 5-bromovinyl-dUrd” value was “potencies similar to that of 5-bromovinyl-dUrd”. The “Anti-VZV VR” value in the data set with VZV [5] came to 3.5.
In the case of `O=c1[nH]c(=O)n([C@H]2C[C@H](O)[C@@H](CO)O2)cc1/C=C/Br` [5-bromovinyl-dUrd, 5-bromovinyl-2'-deoxyuridine, reference compound], the MIC came to 100 µg/mL (≈ 300 µM) in the data set on HSV-2 (Human alphaherpesvirus 2, read-out: Anti-HSV-2 MIC) and 0.032 µg/mL (≈ 0.0961 µM) with HSV-1 (Human alphaherpesvirus 1, read-out: Anti-HSV-1 MIC). In the data set with HSV-2 (Test 3), the “Anti-HSV-2 VR” value turned out to be 0.7. In addition, the “anti-HSV-2 activity compared with 5-vinyl-araU” value with HSV-2 is recorded as “inferior to 5-vinyl-araU”. Moreover, the “Anti-HSV-1 VR” value in the data set with HSV-1 (Test 3) is given as 3.7.
As for `O=c1[nH]c(=O)n([C@@H]2O[C@H](CO)[C@@H](O)[C@@H]2O)cc1/C=C/Cl` [5-chlorovinyl-araU, (E)-5-(2-chlorovinyl)-1-β-D-arabinofuranosyluracil], the “VR (virus rating)” value in the data set with HSV, isolate-1 (HSV isolate-1, HEL-F, Test 1) is reported as 3.1; in the data set on HSV-1, VR-3 (HSV-1 VR-3, HEL-F, Test 1) it was 3.3; with VZV [6], 3.4. In addition, the MIC with HSV, isolate-1 (HSV isolate-1, HEL-F, Test 1) is 0.1 µg/mL (≈ 0.328 µM); in the data set with HSV-2 (setting [7]), above 1000 µg/mL; in the data set with HSV-1 (setting [8]), 0.1 µg/mL (≈ 0.328 µM); against VZV [5], 0.1 µg/mL (≈ 0.328 µM); in the data set on HSV-1, VR-3 (setting [10]), 0.1 µg/mL (≈ 0.328 µM); in the data set with VZV [6] it was 0.1 µg/mL (≈ 0.328 µM). The “Anti-HSV-2 VR” value in the data set on HSV-2 (Test 3) is given as 0.2. For the same compound, in the data set with HSV-1 (Test 3), the “Anti-HSV-1 VR” value came out at 3.5. The “anti-HSV-1 activity compared with 5-vinyl-araU” value in the data set on HSV-1 was “significantly greater anti-HSV-1 activity”. In addition, in the data set on HEL-F [1], the “HEL-F proliferation inhibitory effect compared with 5-bromovinyl-dUrd” value was “less than that of 5-bromovinyl-dUrd”. The “cell proliferation inhibiting activity relative to 5-vinyl-araU” value in the data set on HEL-F [1] is “one half relative to 5-vinyl-araU”. For the same compound, the CC50 at 96 h was 1000 µg/mL (≈ 3280 µM) in data set [2] and above 500 µg/mL in [4] (setting [9]). Further, the “inhibition of cell proliferation compared with IDU and araA” value in the data set on HEL-F [3] was “markedly weak inhibition of cell proliferation”. In the data set on herpes virus, the “anti-virus activity compared with IDU and araA” value is listed as “stronger anti-virus activities”. The “anti-virus activity compared with 5-bromovinyl-dUrd” value in the data set on herpes virus is on record as “potencies similar to that of 5-bromovinyl-dUrd”. Besides, the “Anti-VZV VR” value in the data set with VZV [5] came to 3.4.
In the case of `C=Cc1cn([C@@H]2O[C@H](CO)[C@@H](O)[C@@H]2O)c(=O)[nH]c1=O` [5-vinyl-araU, 5-vinylarabinofuranosyluracil, reference compound], the MIC came out at 1 µg/mL (≈ 3.7 µM) in the data set with HSV-2 (setting [7]), 0.1 µg/mL (≈ 0.37 µM) with HSV-1 (setting [8]) and 0.32 µg/mL (≈ 1.18 µM) with VZV [5]. Besides, the “Anti-HSV-2 VR” value with HSV-2 (Test 3) turned out to be 2.7. Moreover, in the data set with HSV-1 (Test 3), the “Anti-HSV-1 VR” value worked out at 3.3. The CC50 at 96 h in [2] amounted to 650 µg/mL (≈ 2410 µM). Also, the “Anti-VZV VR” value with VZV [5] is on record as 2.9.
`O=c1[nH]c(=O)n([C@H]2C[C@H](O)[C@@H](CO)O2)cc1I` [IDU, 5-iodo-2'-deoxyuridine, reference compound]: the “VR (virus rating)” value in the data set on HSV, isolate-1 (HSV isolate-1, HEL-F, Test 1) is given as 2.1; with HSV-1, VR-3 (HSV-1 VR-3, HEL-F, Test 1), 2.4; in the data set on VZV [6] it was 2.3. Moreover, the MIC stood at 3.2 µg/mL (≈ 9.04 µM) in the data set with HSV, isolate-1 (HSV isolate-1, HEL-F, Test 1); 3.2 µg/mL (≈ 9.04 µM) with HSV-1, VR-3 (setting [10]); 3.2 µg/mL (≈ 9.04 µM) in the data set on VZV [6]. Further, the CC50 at 96 h in data set [4] (setting [9]) came out at 6 µg/mL (≈ 16.9 µM).
With `Nc1ncnc2c1ncn2[C@@H]1O[C@H](CO)[C@@H](O)[C@@H]1O` [araA, arabinofuranosyladenine, reference compound], the “VR (virus rating)” value amounted to 1.9 in the data set with HSV, isolate-1 (HSV isolate-1, HEL-F, Test 1) and 1.9 in the data set with HSV-1, VR-3 (HSV-1 VR-3, HEL-F, Test 1). Further, the MIC was 10 µg/mL (≈ 37.4 µM) in the data set with HSV, isolate-1 and 10 µg/mL (≈ 37.4 µM) with HSV-1, VR-3 (Human alphaherpesvirus 1, read-out: MIC (minimal inhibitory concentration for cytopathogenic effect caused by the infection)). In data set [4], this compound came in with a CC50 at 96 h of 4 µg/mL (≈ 15 µM).
